Data taken from ChEMBL document CHEMBL1201862, “PubChem BioAssay data set” (2004).
Active and inactive are the calls of the source. Cut-off read from the data, not from the text of the source, for most assays here: actives have a measured EC50 and inactives only a lower limit.

How the values were obtained:
[1] = biological target: T1, RNA-binding protein pos-1 (Caenorhabditis elegans, UniProt G5EF15); assay: inhibitors of POS-1/mex-3 RNA binding, dose response, biochemical, fluorescence polarization (AID 1964);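 note: purified POS-1 fused to maltose binding protein made in E. coli; potency of compounds blocking POS-1 binding to fluorescent RNA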
T1 sequence (G5EF15 whole entry): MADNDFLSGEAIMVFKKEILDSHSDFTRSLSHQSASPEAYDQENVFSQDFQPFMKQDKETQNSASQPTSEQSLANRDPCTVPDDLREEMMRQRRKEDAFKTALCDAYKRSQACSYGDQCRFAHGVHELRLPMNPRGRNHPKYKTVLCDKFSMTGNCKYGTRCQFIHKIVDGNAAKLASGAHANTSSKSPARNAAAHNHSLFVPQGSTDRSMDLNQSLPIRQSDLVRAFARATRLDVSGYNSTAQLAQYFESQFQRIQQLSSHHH

[2] = biological target: T2, Zinc finger protein mex-5 (Caenorhabditis elegans, UniProt Q9XUB2); assay: MEX-5/TCR-2 RNA interaction inhibitors, dose response, biochemical, C. elegans, fluorescence polarization (AID 1960)
T2 sequence (Q9XUB2 whole entry): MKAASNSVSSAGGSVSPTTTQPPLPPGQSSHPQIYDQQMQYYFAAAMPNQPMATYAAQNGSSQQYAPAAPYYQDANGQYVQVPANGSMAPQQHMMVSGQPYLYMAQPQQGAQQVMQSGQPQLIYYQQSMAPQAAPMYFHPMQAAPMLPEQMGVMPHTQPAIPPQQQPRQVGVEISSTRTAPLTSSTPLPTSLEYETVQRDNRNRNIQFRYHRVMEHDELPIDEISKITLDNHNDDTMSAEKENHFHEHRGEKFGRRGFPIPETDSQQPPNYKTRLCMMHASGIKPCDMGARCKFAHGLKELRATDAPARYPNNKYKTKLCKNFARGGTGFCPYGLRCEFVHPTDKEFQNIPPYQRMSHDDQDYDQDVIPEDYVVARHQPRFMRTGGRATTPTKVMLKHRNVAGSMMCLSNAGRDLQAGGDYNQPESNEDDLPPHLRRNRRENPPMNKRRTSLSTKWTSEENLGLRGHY

[3] = biological target: Luciferin 4-monooxygenase (Photinus pyralis, UniProt P08659); assay: firefly luciferase enzyme inhibitors, dose response, biochemical, luminescence (AID 1891)
[4] = Luminescence Cell-Based Dose Confirmation HTS to Identify Inhibitors of Platelet Dense Granule Release. [Related pubchem assays: 1663 (Primary HTS), 1678 (Summary of Project)]; assay type: functional
Cytochrome P450 3A4 = Cytochrome P450 3A4 (Homo sapiens, UniProt P08684);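 note: CYP3A4 tested as one member of a cytochrome P450 panel screen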
[5] = biological target: T3, Corticotropin-releasing factor receptor 2/Corticotropin-releasing factor-binding protein (Homo sapiens, UniProt P24387+Q13324); assay: activators of CRF receptor 2 with binding protein – uHTS hits, confirmation (AID 602473); assay type: functional; conditions: read-out: EC50_Mean
T3 sequence (Q13324 whole entry): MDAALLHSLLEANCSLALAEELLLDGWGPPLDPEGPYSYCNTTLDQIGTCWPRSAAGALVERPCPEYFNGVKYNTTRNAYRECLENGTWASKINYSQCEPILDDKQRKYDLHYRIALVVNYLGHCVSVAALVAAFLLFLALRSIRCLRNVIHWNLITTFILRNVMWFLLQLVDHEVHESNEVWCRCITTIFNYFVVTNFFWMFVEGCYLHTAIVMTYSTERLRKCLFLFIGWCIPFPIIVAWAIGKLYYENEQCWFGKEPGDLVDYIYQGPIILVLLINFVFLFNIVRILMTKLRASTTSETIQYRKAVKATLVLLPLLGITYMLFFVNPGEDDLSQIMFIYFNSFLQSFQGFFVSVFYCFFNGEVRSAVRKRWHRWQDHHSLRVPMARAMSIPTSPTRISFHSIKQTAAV
T3 sequence (P24387 whole entry): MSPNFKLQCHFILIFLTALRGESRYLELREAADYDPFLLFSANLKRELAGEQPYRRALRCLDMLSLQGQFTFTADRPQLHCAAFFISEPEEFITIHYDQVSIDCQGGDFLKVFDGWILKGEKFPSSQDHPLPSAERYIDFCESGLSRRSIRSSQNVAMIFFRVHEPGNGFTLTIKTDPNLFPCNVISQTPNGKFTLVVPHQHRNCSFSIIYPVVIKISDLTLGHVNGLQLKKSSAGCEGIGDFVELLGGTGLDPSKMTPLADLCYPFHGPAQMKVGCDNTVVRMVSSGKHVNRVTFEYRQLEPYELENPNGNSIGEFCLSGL

[6] = inhibitors of intracellular T. cruzi replication, confirmation, NIH3T3 host cells, beta-gal luminescence (AID 2044); assay type: functional, cell-based;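 note: intracellular parasites grown in NIH/3T3 mouse fibroblasts as host cells; luminescent beta-galactosidase reporter signal from transgenic T. cruzi replicating inside host cells; inhibitors lower the luminescence signal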
[7] = cytotoxicity toward NIH3T3 fibroblasts, dose response, counter-screen, cell-based, ATP luminescence, mouse fibroblasts (AID 2010); assay type: functional;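 note: cells exposed to compound for about 90 hours before reading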
[8] = biological target: FAD-linked sulfhydryl oxidase ALR (Homo sapiens, UniProt P55789); assay: inhibitors of human ALR sulfhydryl oxidase, dose response, biochemical, H2O2 detection, luminescence, cherry-pick (AID 493248)
[9] = biological target: T4, Rac GTPase-activating protein 1 (Homo sapiens, UniProt Q9H0H5); assay: MgcRacGAP GTPase-activating activity inhibitors, confirmation, biochemical, ADP Hunter fluorescence, primary and confirmatory (AID 624330); assay type: functional
T4 sequence (Q9H0H5 whole entry): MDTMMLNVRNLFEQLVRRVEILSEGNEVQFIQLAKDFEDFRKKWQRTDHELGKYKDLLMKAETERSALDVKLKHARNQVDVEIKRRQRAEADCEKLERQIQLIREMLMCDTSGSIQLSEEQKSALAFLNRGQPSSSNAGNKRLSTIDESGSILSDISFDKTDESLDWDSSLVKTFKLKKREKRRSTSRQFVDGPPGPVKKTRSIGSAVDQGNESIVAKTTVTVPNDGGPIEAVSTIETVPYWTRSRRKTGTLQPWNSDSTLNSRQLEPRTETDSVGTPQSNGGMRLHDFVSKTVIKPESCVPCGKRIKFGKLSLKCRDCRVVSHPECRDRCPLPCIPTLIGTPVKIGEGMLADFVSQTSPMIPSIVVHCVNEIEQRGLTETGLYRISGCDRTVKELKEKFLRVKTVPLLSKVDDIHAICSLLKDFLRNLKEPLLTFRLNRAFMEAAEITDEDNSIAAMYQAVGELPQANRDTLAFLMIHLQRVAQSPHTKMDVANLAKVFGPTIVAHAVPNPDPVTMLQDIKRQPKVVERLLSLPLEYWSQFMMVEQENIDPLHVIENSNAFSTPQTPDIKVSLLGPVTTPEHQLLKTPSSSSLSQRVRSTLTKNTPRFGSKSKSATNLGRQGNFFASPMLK

[10] = inhibitors of firefly luciferase expression or activity, dose response, H4 neuroglioma cells, luminescence (AID 1990); assay type: functional, cell-based
[11] = Luminescence Cell-Based Dose Response HTS to Identify Inhibitors of 5'UTR Stem-Loop Driven Prion Protein mRNA Translation in H4 Neuroglioblastoma Cells. [Related pubchem assays: 1827 (Project Summary), 1813 (Primary HTS)]; assay type: functional
[12] = inhibitors of SNCA 5'UTR-driven reporter translation, confirmation, H4 neuroglioma cells, luminescence (AID 1988); assay type: functional, cell-based
Cytochrome P450 2C9 = Cytochrome P450 2C9 (Homo sapiens, UniProt P11712)
[13] = Luminescence Cell-Based Dose Response HTS to Identify Activators of Luciferase Translation or Activity in H4 […] Cells. [Related pubchem assays: 1829 (Project Summary), 1814 (Primary HTS)]; assay type: functional
H4 = assay: Luminescence Cell-Based Dose Response HTS to Identify Activators of 5'UTR Stem-Loop Driven Prion Protein mRNA Translation in H4 Neuroglioblastoma Cells. [Related pubchem assays: 1829 (Project Summary), 1814 (Primary HTS)]; assay type: functional; conditions: Homo sapiens

Sequence of Luciferin 4-monooxygenase (P08659 whole entry): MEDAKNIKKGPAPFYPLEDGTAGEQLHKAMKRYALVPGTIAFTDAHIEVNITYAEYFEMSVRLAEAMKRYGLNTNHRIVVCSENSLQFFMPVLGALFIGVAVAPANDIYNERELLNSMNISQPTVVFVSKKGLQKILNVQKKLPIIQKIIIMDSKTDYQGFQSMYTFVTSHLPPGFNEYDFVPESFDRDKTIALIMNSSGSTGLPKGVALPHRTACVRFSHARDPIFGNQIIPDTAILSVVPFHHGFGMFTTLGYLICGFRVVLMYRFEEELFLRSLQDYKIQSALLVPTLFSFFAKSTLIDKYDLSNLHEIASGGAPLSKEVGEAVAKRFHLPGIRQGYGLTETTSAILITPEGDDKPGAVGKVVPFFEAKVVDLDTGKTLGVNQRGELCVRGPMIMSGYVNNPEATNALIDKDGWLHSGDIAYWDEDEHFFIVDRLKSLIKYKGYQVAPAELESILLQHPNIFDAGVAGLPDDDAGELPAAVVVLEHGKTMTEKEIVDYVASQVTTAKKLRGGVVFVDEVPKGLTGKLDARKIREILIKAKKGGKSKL
Sequence of Cytochrome P450 3A4 (P08684 whole entry): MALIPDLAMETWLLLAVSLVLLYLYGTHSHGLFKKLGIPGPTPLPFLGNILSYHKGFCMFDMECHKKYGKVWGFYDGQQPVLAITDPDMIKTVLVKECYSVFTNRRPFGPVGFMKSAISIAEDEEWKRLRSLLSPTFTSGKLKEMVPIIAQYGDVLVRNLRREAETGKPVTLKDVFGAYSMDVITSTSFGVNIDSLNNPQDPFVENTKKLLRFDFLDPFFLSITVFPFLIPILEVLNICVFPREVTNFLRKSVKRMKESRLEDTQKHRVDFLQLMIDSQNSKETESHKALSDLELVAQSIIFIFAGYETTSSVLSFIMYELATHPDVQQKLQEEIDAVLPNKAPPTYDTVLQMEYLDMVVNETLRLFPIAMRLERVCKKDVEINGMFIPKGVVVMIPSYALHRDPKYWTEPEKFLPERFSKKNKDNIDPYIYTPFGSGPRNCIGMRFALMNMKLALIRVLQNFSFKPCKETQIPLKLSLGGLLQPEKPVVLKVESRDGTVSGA
Sequence of FAD-linked sulfhydryl oxidase ALR (P55789 whole entry): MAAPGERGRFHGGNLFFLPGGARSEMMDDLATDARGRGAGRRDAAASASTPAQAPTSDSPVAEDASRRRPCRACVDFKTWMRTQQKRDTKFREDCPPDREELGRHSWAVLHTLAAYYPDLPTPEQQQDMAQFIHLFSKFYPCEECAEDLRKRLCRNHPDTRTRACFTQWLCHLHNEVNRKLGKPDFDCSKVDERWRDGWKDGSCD
Sequence of Cytochrome P450 2C9 (P11712 whole entry): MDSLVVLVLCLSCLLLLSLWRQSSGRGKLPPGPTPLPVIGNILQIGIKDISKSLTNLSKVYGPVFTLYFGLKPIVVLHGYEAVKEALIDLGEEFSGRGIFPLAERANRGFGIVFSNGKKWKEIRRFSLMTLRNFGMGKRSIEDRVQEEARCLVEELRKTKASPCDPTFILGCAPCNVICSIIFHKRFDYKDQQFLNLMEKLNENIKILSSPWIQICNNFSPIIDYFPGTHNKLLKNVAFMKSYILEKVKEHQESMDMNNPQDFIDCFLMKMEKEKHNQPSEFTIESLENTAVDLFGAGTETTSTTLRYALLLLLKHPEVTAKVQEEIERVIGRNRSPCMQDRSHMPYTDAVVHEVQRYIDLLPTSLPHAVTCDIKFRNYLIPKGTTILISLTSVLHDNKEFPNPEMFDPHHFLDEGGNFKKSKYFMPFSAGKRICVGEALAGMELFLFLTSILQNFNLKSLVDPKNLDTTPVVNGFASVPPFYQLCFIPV

COc1cccc(C2(O)CCN(CC(=O)Nc3nc(C)cs3)CC2)c1
EC50 [1]: > 300 µM (not active) | EC50 [2]: > 300 µM (not active)

CCCCC1=CC2=CC(=O)C(C)(OC(=O)c3cnc4ccccc4n3)C(=O)C2=CO1 (configuration not stated)
EC50 [1]: 19.9 µM (active) | EC50 [2]: 19 µM (active)

CCOC(=O)c1ccc(-n2c(CCC(=O)O)ccc2-c2ccccc2)cc1
EC50 [1]: > 300 µM (not active) | EC50 [2]: > 300 µM (not active)

CC(=O)NCCNc1ccc([N+](=O)[O-])cc1C#N
EC50 [1]: > 300 µM (not active) | EC50 [2]: > 300 µM (not active)

COCCNC(=O)/C(C#N)=C/c1ccc(O)cc1
EC50 [3]: 4.8 µM (active) | EC50 [4]: 1.62 µM (active)

Cc1c(Cl)ccc2sc(NC(=O)C3CC3)nc12
EC50 [3]: > 112 µM (not active) | EC50 [4]: > 112 µM (not active)

O=C(O)c1nc2nc(Cl)c(Cl)nc2[nH]1
AC50 (Cytochrome P450 3A4): 3.16 µM (inconclusive)

CC(=O)N1N=C2C3CCN(CC3)C2C1c1cccc2ccccc12 (configuration not stated)
EC50 [5]: > 53 µM (inactive)

COc1cc(/C=C(\C#N)C(=O)NCCc2ccccc2)cc(OC)c1O
EC50 [5]: > 53 µM (inactive)

COc1cc(C)c(N)cc1C(C)C
EC50 [6]: 16.9 µM (active) | EC50 [7]: > 60 µM (not active) | AC50 [8]: 0.027 µM (active) | IC50 [9]: 113 µM (active)

CCn1c2ccccc2c2cc(NC(=O)CSc3nnc(-c4cccc(Cl)c4)o3)ccc21
EC50 [3]: > 112 µM (not active) | EC50 [4]: > 112 µM (not active)

CNc1nc2c3ccccc3n(C(C)=O)c2s1
EC50 [3]: > 112 µM (not active) | EC50 [4]: > 112 µM (not active) | IC50 [9]: 184 µM (active)

CCN(CC)c1ccc(NC(=O)CN2CCN(c3nc(C)cc(C)n3)CC2)cc1
AC50 [8]: 1.03 µM (active)

CC1CCCCN1S(=O)(=O)c1ccc(S(=O)(=O)N(CC(=O)Nc2ccccc2)Cc2cccs2)cc1 (configuration not stated)
EC50 [3]: > 112 µM (not active) | EC50 [4]: > 112 µM (not active) | EC50 [6]: 1.7 µM (active) | EC50 [7]: > 60 µM (inconclusive)

Cc1nc2cc(-c3cccc(F)c3)nn2c(C)c1CCC(=O)N1CCN(c2ccccn2)CC1
EC50 [10]: 11.9 µM (active) | EC50 [11]: 14.1 µM (active) | EC50 [12]: 12.4 µM (active)

N#CC1=C(N)C(C#N)(C#N)C(c2cccnc2)C2CCCC=C12 (configuration not stated)
EC50 [1]: 22.2 µM (active) | EC50 [2]: 17.5 µM (active)

CN1CCC(NC(=O)Nc2cccc(C(F)(F)F)c2)CC1
EC50 [3]: > 112 µM (not active) | EC50 [4]: > 112 µM (not active)

COc1cc(OC)cc(C(=O)Nc2ccc(S(=O)(=O)Nc3cc(C)nc(C)n3)cc2)c1
AC50 [8]: 1.68 µM (active)

C[C@@H](Cc1ccccc1)Nc1ncnc2c1ncn2[C@@H]1O[C@@H](CO)[C@H](O)[C@@H]1O
AC50 (Cytochrome P450 3A4): 10 µM (inconclusive)

COC(=O)[C@H](N)Cc1ccc(Cl)cc1
AC50 (Cytochrome P450 3A4): 31.6 µM (inconclusive)

CC(=O)Nc1ccc2nc(NC(=O)c3cccs3)sc2c1
EC50 [3]: 2.26 µM (active) | EC50 [4]: 6.27 µM (active)

CC1CCN(C(=S)c2ccc(N(C)C)cc2)CC1
AC50 [8]: 0.915 µM (active)

CC(C)(C)Nc1nc(N2CCCC2)nc(N2CCCC2)n1
EC50 [10]: 16.7 µM (active) | EC50 [11]: 19.6 µM (active) | EC50 [12]: 16.7 µM (active) | AC50 (Cytochrome P450 2C9): 5.01 µM (inconclusive)

Cc1c(C(=O)N(C)C)c2cc(Cl)ccc2n1O
AC50 [8]: 0.722 µM (active)

N#CC(C#N)=Cc1ccc(-c2ccc(S(=O)(=O)NC(=N)N)cc2)o1
EC50 [1]: > 300 µM (not active) | EC50 [2]: 236 µM (active)

Cc1cc2c(cc(C(=O)O)n2C)s1
AC50 [8]: 30.9 µM (active)

Cc1onc(-c2c(F)cccc2Cl)c1C(=O)N1CCCc2ccccc21
EC50 [1]: > 300 µM (not active) | EC50 [2]: > 300 µM (not active)

O=C(c1ccc(Cl)s1)N1CCc2ccccc21
EC50 [13]: 0.124 µM (active) | EC50 (H4): 56.2 µM (inconclusive)

Cc1ccc(-n2nnnc2SCCNS(=O)(=O)c2ccccc2)cc1C
EC50 [10]: > 120 µM (not active) | EC50 [11]: 20.5 µM (active) | EC50 [12]: > 120 µM (not active)

CC(C)Oc1ccc(N2CC(C(=O)Nc3ccc(N4CCOCC4)cc3)CC2=O)cc1 (configuration not stated)
EC50 [3]: > 112 µM (not active) | EC50 [4]: > 112 µM (not active)

O=C(CN(c1ccc(Cl)cc1)S(=O)(=O)c1ccc(Cl)c([N+](=O)[O-])c1)NCCc1ccccc1
EC50 [10]: > 120 µM (not active) | EC50 [11]: 8.52 µM (active) | EC50 [12]: 9.06 µM (active) | EC50 [6]: 3.56 µM (active) | EC50 [7]: > 60 µM (not active)

O=CN/N=C/c1c(O)ccc2ccccc12
EC50 [1]: > 300 µM (not active) | EC50 [2]: 5.35 µM (active)

Cc1[nH]cnc1C(=O)N/N=C/c1c(Cl)cccc1Cl
EC50 [3]: 4.22 µM (active) | EC50 [4]: 1.54 µM (active)

C/C(=N\C1CCCC1)c1c(C)[nH]n(-c2nc3ccccc3s2)c1=O
EC50 [1]: > 300 µM (not active) | EC50 [2]: > 300 µM (not active) | AC50 [8]: 1.24 µM (active)

CC(=O)N(C)c1ccc(/N=N/c2c(C)[nH]n(C(N)=S)c2=O)cc1
EC50 [1]: > 300 µM (not active) | EC50 [2]: 24.2 µM (active)

CSc1ccc(/C=N/NC(=O)c2ccc(O)cc2)cc1
EC50 [3]: 1.57 µM (active) | EC50 [4]: 13.9 µM (active)

Oc1c(/C=N/c2ccccc2Cl)[nH]c2ccccc12
EC50 [1]: > 300 µM (not active) | EC50 [2]: > 300 µM (not active)
